According to US10988478B1, “Pyrazolo[1,5a]pyrimidine derivatives as IRAK4 modulators” (Genentech, Inc., priority 2015, dated 2021):

molecular target: human IRAK4 (Homo sapiens (Human), UniProt Q9NWZ3); assay: IRAK4 kinase inhibition, Transcreener fluorescence polarization ADP assay; format: biochemical; details: recombinant full-length His6-IRAK4; 125 uM ATP; 90 min; Ki computed using ATP Km 642 uM
Protocol: Compounds were assayed for inhibition of human IRAK4 and IRAK1 catalytic activity using recombinant enzyme produced from insect cells. Full-length IRAK4 protein, carrying an N-terminal His6-Tag, was obtained from Life Technologies (Carlsbad, Calif., USA). The IRAK1 construct was produced internally and was comprised of IRAK1 residues Arg194 to Ser712, preceded by an NH2-terminal His6 tag and the coding sequence for glutathione-S-transferase.

Chain of human IRAK4 (Q9NWZ3 whole entry, the tested form may be a part): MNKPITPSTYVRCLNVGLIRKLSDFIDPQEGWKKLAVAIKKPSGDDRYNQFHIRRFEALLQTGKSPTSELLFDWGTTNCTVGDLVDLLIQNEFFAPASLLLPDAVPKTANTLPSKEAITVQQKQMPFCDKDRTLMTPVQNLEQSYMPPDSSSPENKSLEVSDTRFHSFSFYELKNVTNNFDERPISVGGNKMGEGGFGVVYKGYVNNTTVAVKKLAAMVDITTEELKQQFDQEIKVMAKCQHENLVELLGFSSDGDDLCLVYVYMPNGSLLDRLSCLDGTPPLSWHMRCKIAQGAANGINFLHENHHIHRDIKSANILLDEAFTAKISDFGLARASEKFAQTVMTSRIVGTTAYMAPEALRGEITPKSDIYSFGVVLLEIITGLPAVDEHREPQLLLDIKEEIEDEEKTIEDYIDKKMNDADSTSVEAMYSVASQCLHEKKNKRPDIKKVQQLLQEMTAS

Compared with `C[C@]1(O)COc2cc(N3CCOCC3)c(NC(=O)c3cnn4cccnc34)cc2C1` (single isomer, unassigned) [Example 27], `C[C@@]1(O)COc2cc(N3CCOCC3)c(NC(=O)c3cnn4cccnc34)cc2C1` (single isomer, unassigned) [Example 28] is 9.6-fold lower in Ki: 260 nM for the first, 27 nM for the second.

`C[C@]1(CO)Cc2cc(NC(=O)c3cnn4cccnc34)c(N3CCC(F)(CO)CC3)cc2O1` (single isomer, unassigned) [Example 44] and `C[C@@]1(CO)Cc2cc(NC(=O)c3cnn4cccnc34)c(N3CCC(F)(CO)CC3)cc2O1` (single isomer, unassigned) [Example 45] are within 1.5-fold of each other in Ki: 1.7 nM for the first, 1.9 nM for the second.

First: C[C@@]1(CO)Cc2cc(NC(=O)c3cnn4cccnc34)c(N3C[C@@H]4C[C@H]3CO4)cc2O1 (single isomer, unassigned) [Example 46]
Second: C[C@@]1(O)CCCN(c2cc3c(cc2NC(=O)c2cnn4cccnc24)C[C@@](C)(CO)O3)CC1 (single isomer, unassigned) [Example 331]
The Ki of the first is 45-fold higher: 540 nM for the first, 12 nM for the second. The second binds more tightly here.

`CC[C@]1(C)Cc2cc(NC(=O)c3cnn4cccnc34)c(N3CCOCC3)cc2O1` (single isomer, unassigned) [Example 97] and `C[C@]1(CO)CCc2cc(NC(=O)c3cnn4cccnc34)c(N3CCOCC3)cc2O1` (single isomer, unassigned) [Example 432] are within 1.5-fold of each other in Ki: 7.2 nM for the first, 10 nM for the second.

First: C[C@]1(CO)Cc2cc(NC(=O)c3cnn4cc(Cl)cnc34)c(N3CCOCC3)cc2O1 (single isomer, unassigned) [Example 166]
Second: C[C@@]1(CO)Cc2cc(NC(=O)c3cnn4cc(Cl)cnc34)c(N3CCN(CC(F)F)CC3)cc2O1 (single isomer, unassigned) [Example 169]
The Ki of the first is 7.2-fold higher: 18 nM for the first, 2.5 nM for the second.

`CC1(C)Cc2cc(NC(=O)c3cnn4cccnc34)c(N3CC[C@@]4(CCOC4)C3)cc2O1` (single isomer, unassigned) [Example 222] and `CC1(C)Cc2cc(NC(=O)c3cnn4cccnc34)c(N3CC[C@]4(CCOC4)C3)cc2O1` (single isomer, unassigned) [Example 223] are within 1.5-fold of each other in Ki: 94 nM for the first, 72 nM for the second.

`CC(C)(O)[C@H](F)CN1Cc2cc(NC(=O)c3cnn4cccnc34)c(N3CCC([C@H](O)C(F)(F)F)CC3)cc2C1=O` (single isomer, unassigned) [Example 259] and `CC(C)(O)[C@H](F)CN1Cc2cc(NC(=O)c3cnn4cccnc34)c(N3CCC([C@H](O)C(F)F)CC3)cc2C1=O` (single isomer, unassigned) [Example 282] are the same in Ki: 2 nM for the first, 2 nM for the second.

First: O=C(Nc1cc2c(cc1N1CCOCC1)C(=O)N(C1CCOC1)C2)c1cnn2cccnc12 (single isomer, unassigned) [Example 275, N-(6-morpholino-1-oxo-2-(tetrahydrofuran-3-yl)isoindolin-5-yl)pyrazolo[1,5-a]pyrimidine-3-carboxamide]
Second: O=C(Nc1cc2c(cc1N1CCOCC1)C(=O)N(CC1CCOC1)C2)c1cnn2cccnc12 (single isomer, unassigned) [Example 555]
The Ki of the first is 8.9-fold higher: 34 nM for the first, 3.8 nM for the second.

Going from `O=C(Nc1cc2c(cc1N1CCOCC1)C(=O)N(C1CCOC1)C2)c1cnn2cccnc12` (single isomer, unassigned) [Example 276, N-(6-morpholino-1-oxo-2-(tetrahydrofuran-3-yl)isoindolin-5-yl)pyrazolo[1,5-a]pyrimidine-3-carboxamide] to `O=C(Nc1cc2c(cc1N1CCOCC1)C(=O)N(CC1CCCCO1)C2)c1cnn2cccnc12` (single isomer, unassigned) [Example 277, N-(6-morpholino-1-oxo-2-((tetrahydro-2H-pyran-2-yl)methyl)isoindolin-5-yl)pyrazolo[1,5-a]pyrimidine-3-carboxamide], the Ki falls from 26 nM to 16 nM (1.6-fold). The second binds more tightly here.

Going from `O=C(Nc1cc2c(cc1N1CCOCC1)C(=O)N(CC1CCCCO1)C2)c1cnn2cccnc12` (single isomer, unassigned) [Example 278, N-(6-morpholino-1-oxo-2-((tetrahydro-2H-pyran-2-yl)methyl)isoindolin-5-yl)pyrazolo[1,5-a]pyrimidine-3-carboxamide] to `O=C(Nc1cc2c(cc1N1CCOCC1)C(=O)N(C[C@@H]1CCC[C@H]1O)C2)c1cnn2cccnc12` (stereo in doubt) [Example 549, N-[2-[[(1S,2R)-2-hydroxycyclopentyl]methyl]-6-morpholino-1-oxo-isoindolin-5-yl]pyrazolo[1,5-a]pyrimidine-3-carboxamide], the Ki rises from 4 nM to 8.1 nM (2-fold). The first binds more tightly here.

Going from `CC(C)(O)[C@H](F)CN1Cc2cc(NC(=O)c3cnn4cccnc34)c(N3CCC([C@@H](O)C(F)F)CC3)cc2C1=O` (single isomer, unassigned) [Example 283] to `CC(CC(C)(C)O)N1Cc2cc(NC(=O)c3cnn4cccnc34)c(N3CCOCC3)cc2C1=O` (stereo in doubt) [Example 544, N-[2-[(1S)-3-hydroxy-1,3-dimethyl-butyl]-6-morpholino-1-oxo-isoindolin-5-yl]pyrazolo[1,5-a]pyrimidine-3-carboxamide], the Ki rises from 2 nM to 13 nM (6.5-fold).

`O=C(Nc1cc2c(cc1N1CCC(F)(CO)CC1)O[C@](CO)(C(F)(F)F)C2)c1cnn2cccnc12` (single isomer, unassigned) [Example 318] and `C[C@]1(CO)Cc2cc(NC(=O)c3cnn4cccnc34)c(N3CCC4(CC3)CNC(=O)C4)cc2O1` (single isomer, unassigned) [Example 417] are within 1.5-fold of each other in Ki: 4.3 nM for the first, 3.6 nM for the second.

Going from `CC1(CO)Cc2cc(NC(=O)c3cnn4cccnc34)c(N3CCC(n4ccnc4)CC3)cc2O1` (single isomer, unassigned) [Example 344, N-(6-(4-(1H-imidazol-1-yl)piperidin-1-yl)-2-(hydroxymethyl)-2-methyl-2,3-dihydrobenzofuran-5-yl)pyrazolo[1,5-a]pyrimidine-3-carboxamide] to `CC1(C)Cc2cc(NC(=O)c3cnn4cccnc34)c(N3CCC(CO)CC3)cc2O1` [Example 4, N-(6-(4-(Hydroxymethyl)piperidin-1-yl)-2,2-dimethyl-2,3-dihydrobenzofuran-5-yl)pyrazolo[1,5-a]pyrimidine-3-carboxamide], the Ki falls from 8 nM to 1.5 nM (5.3-fold). The second binds more tightly here.

Going from `CC1(CO)Cc2cc(NC(=O)c3cnn4cccnc34)c(N3CCC(n4ccnc4)CC3)cc2O1` (single isomer, unassigned) [Example 345, N-(6-(4-(1H-imidazol-1-yl)piperidin-1-yl)-2-(hydroxymethyl)-2-methyl-2,3-dihydrobenzofuran-5-yl)pyrazolo[1,5-a]pyrimidine-3-carboxamide] to `C[C@]1(CO)Cc2cc(NC(=O)c3cnn4cccnc34)c(N3Cc4cccnc4C3)cc2O1` (single isomer, unassigned) [Example 419], the Ki rises from 4 nM to 9 nM (2.2-fold). The first binds more tightly here.

First: C[C@]1(O)COc2cc(N3CCC([C@@](C)(O)C(F)(F)F)CC3)c(NC(=O)c3cnn4cccnc34)cc2C1 (single isomer, unassigned) [Example 422]
Second: CC1(C)Cc2cc(NC(=O)c3cnn4cccnc34)c(N3CCN(CC(F)F)CC3)cc2O1 [Example 8, N-[6-[4-(2,2-Difluoroethyl)piperazin-1-yl]-2,2-dimethyl-3H-benzofuran-5-yl]pyrazolo[1,5-a]pyrimidine-3-carboxamide]
The Ki of the first is 48-fold higher: 110 nM for the first, 2.3 nM for the second. The second binds more tightly here.

`Cn1cc(COc2cc3c(cc2NC(=O)c2cnn4cccnc24)C[C@@](C)(O)CO3)cn1` (single isomer, unassigned) [Example 430] and `CNC[C@H]1OC[C@H](c2cc3c(cc2NC(=O)c2cnn4cccnc24)CC(C)(C)O3)CO1` [Example 3, Trans-N-[2,2-dimethyl-6-[2-(methylaminomethyl)-1,3-dioxan-5-yl]-3H-benzofuran-5-yl]pyrazolo[1,5-a]pyrimidine-3-carboxamide] are within 1.5-fold of each other in Ki: 130 nM for the first, 150 nM for the second.

`C[C@@]1(CO)CCc2cc(NC(=O)c3cnn4cccnc34)c(N3CCOCC3)cc2O1` (single isomer, unassigned) [Example 433] and `C[C@]1(CO)CCc2cc(NC(=O)c3cnn4cccnc34)c(N3CCOCC3)cc2O1` (single isomer, unassigned) [Example 437] are the same in Ki: 14 nM for the first, 14 nM for the second.

First: C[C@@]1(CO)CCc2cc(NC(=O)c3cnn4cccnc34)c(N3CCOCC3)cc2O1 (single isomer, unassigned) [Example 436]
Second: CC1(C)CNc2cc(NC(=O)c3cnn4cccnc34)c(N3CCOCC3)cc2O1 [Example 5, N-(2,2-Dimethyl-7-morpholino-3,4-dihydro-2H-benzo[b][1,4]oxazin-6-yl)pyrazolo[1,5-a]pyrimidine-3-carboxamide]
The Ki of the first is 5.4-fold lower: 10 nM for the first, 54 nM for the second. The first binds more tightly here.

Compared with `CC(CC(C)(C)O)N1Cc2cc(NC(=O)c3cnn4cccnc34)c(N3CCOCC3)cc2C1=O` (stereo in doubt) [Example 545, N-[2-[(1R)-3-hydroxy-1,3-dimethyl-butyl]-6-morpholino-1-oxo-isoindolin-5-yl]pyrazolo[1,5-a]pyrimidine-3-carboxamide], `O=C(Nc1cc2c(cc1N1CCOCC1)C(=O)N(C[C@H]1CCC[C@@H]1O)C2)c1cnn2cccnc12` (stereo in doubt) [Example 550, N-[2-[[(1R,2S)-2-hydroxycyclopentyl]methyl]-6-morpholino-1-oxo-isoindolin-5-yl]pyrazolo[1,5-a]pyrimidine-3-carboxamide] is 2.8-fold lower in Ki: 5.9 nM for the first, 2.1 nM for the second. The second binds more tightly here.

Compared with `O=C(Nc1cc2c(cc1N1CCC(CO)CC1)OCCN2)c1cnn2cccnc12` [Example 1, N-(7-(4-(Hydroxymethyl)piperidin-1-yl)-3,4-dihydro-2H-benzo[b][1,4]oxazin-6-yl)pyrazolo[1,5-a]pyrimidine-3-carboxamide], `O=C1COc2cc(N3CCC(CO)CC3)c(NC(=O)c3cnn4cccnc34)cc2N1` [Example 2, N-(7-(4-(Hydroxymethyl)piperidin-1-yl)-3-oxo-3,4-dihydro-2H-benzo[b][1,4]oxazin-6-yl)pyrazolo[1,5-a]pyrimidine-3-carboxamide] is 5.5-fold higher in Ki: 4.7 nM for the first, 26 nM for the second. The first binds more tightly here.

In the case of `Cc1cnc2c(C(=O)Nc3cc4c(cc3N3CCC(CO)CC3)OCCN4)cnn2c1` [Example 7, N-(7-(4-(Hydroxymethyl)piperidin-1-yl)-3,4-dihydro-2H-benzo[b][1,4]oxazin-6-yl)-6-methylpyrazolo[1,5-a]pyrimidine-3-carboxamide], the Ki is reported as 3.9 nM.
